The values below come from PMC1924862, “X-ray structures of Na-GST-1 and Na-GST-2 two glutathione s-transferase from the human hookworm Necator americanus” (BMC Structural Biology, 2007).

One assay has as its target T1, Na-GST-2 (Necator americanus, UniProt D3U1A6).
T1 construct: homodimer; Nu class; glutathione carried over from fermentation
T1 sequence (D3U1A6 1-206): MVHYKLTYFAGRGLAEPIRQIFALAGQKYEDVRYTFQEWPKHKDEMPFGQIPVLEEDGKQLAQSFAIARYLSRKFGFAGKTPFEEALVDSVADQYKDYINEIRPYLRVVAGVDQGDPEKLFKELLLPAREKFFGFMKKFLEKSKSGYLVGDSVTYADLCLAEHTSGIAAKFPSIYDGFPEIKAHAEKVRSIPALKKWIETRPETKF
The assay can be described thus: CDNB-glutathione conjugation, absorbance at […] nm. The class given is biochemical.

A further assay has as its target T2, Na-GST-1 (Necator americanus, UniProt D3U1A5).
T2 construct: 206 residues ordered; homodimer; Nu class
T2 sequence (D3U1A5 1-206): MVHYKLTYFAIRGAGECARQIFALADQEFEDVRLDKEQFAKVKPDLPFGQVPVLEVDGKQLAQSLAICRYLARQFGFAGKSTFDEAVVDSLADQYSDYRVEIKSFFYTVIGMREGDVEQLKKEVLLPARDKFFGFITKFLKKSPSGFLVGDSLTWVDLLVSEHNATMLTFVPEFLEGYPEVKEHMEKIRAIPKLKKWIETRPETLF
The assay can be described thus: CDNB-glutathione conjugation, absorbance at […] nm. In kind it is biochemical.

Where two headings read alike, the source gives them in different places.

`O=C(C1CCCCC1)N1CC(=O)N2CCc3ccccc3C2C1` (stereo not drawn) [praziquantel]: the IC50 on Na-GST-2 was 3300 µM; on Na-GST-1 (read-out: Na-GST-1), over 20000 µM.

For the molecule `CCCSc1ccc2nc(NC(=O)OC)[nH]c2c1` [albendazole], the values for the IC50 against Na-GST-2 and on Na-GST-1 (read-out: Na-GST-1) were 68 µM and 87 µM, respectively.

Take `[Cl][Sn]([c]1ccccc1)([c]1ccccc1)[c]1ccccc1` [chlorotriphenyltin]: the IC50 on Na-GST-2 is 0.7 µM; against Na-GST-1, 22 µM.
